Measurements: US11717635B2, “Argon combined with thrombectomy in the event of ischaemic stroke” (L'Air Liquide, Société Anonyme pour l'Etude et …, priority 2019, dated 2023)

Tested on: transient focal cerebral ischaemia (occlusion of the middle cerebral artery)
Assay: Transient focal cerebral ischaemia (microcoil occlusion of the right MCA, 90 min, then reperfusion mimicking mechanical thrombectomy) with MRI and behavioural follow-up
Assay type: in vivo, rhesus macaques
Protocol: The primates used in the study are rhesus macaques, in which it has been possible to obtain a stable and reproducible model of reversible ischaemia mimicking an ischaemic stroke and its reperfusion by mechanical thrombectomy, as explained below. After approval of the project by the ethics committee for animal experimentation, 6 rhesus macaques were randomized in 2 groups of 3 animals per group, namely: • a group treated with argon or “argon group” inhaling, for 90 min in total, a binary gas mixture formed of 60% argon and 40% oxygen (vol. %), the inhalation of the gas beginning 30 min after the start of the ischaemia and extending during and after the thrombectomy procedure (with or without thrombolysis); • a “control group” inhaling a gas mixture formed of 60% nitrogen and 40% oxygen (vol. %). These groups are subjected to a model of transient focal cerebral ischaemia without craniectomy consisting of an occlusion under anaesthesia of the middle cerebral artery (MCA) by deploying a rigid microspring, called a “microcoil”, until the arterial blood flow stops, in the M2 segment of the right MCA. After 90 min of ischaemia, which is the usual average time between the first signs of an ischaemic stroke and the cerebral reperfusion, the “microcoil” was removed and the revascularization confirmed by arteriography. This procedure mimics a blood clot and its removal by mechanical thrombectomy. All the animals are monitored by high-resolution MRI (Prisma 3 Tesla, Siemens) several days before and directly after the ischaemia (3[…], TOF) in order to quantify the cerebral volume made ischaemic (i.e. restriction of the apparent diffusion coefficient) and the cerebral oedema ([…]). Moreover, the functional recovery was monitored in the acute phase in 1 control animal and over the long-term in two animals of the argon group, that is to say over the course of 3 months post-ischaemia. The evaluations were carried out in terms of the clinical and functional neurological recovery with behavioural tests evaluating their fine sensory-motor performances.

[Ar] [argon]
lesion volume (argon group (60% argon/40% oxygen, 90 min), control group about 5 ml): about 1 ml
performances in the behavioural tests (fine sensory-motor) post-ischaemia compared with baseline (argon group animals monitored 3 months post-ischaemia): not significantly impaired
blood-brain barrier state on MRI images (argon group, rupture observed in the control group): preserved
decrease in the volume of cerebral oedema compared to the control group (inhaled 60% argon/40% oxygen for 90 min, begun 30 min after start of ischaemia, MRI T2-FLAIR, P<0.05 vs control): 85 % reduction
decrease in the cerebral volume infarcted compared to the control group (inhaled 60% argon/40% oxygen for 90 min, begun 30 min after start of ischaemia, MRI, P<0.05 vs 60% nitrogen/40% oxygen control): 83 % reduction
clinical and functional neurological recovery (two animals of the argon group monitored 3 months post-ischaemia, deficit = left leg paresis): rapid recovery with only a minor and transient neurological deficit
